Data: US11406699B2 (priority 2019, dated 2022)
“And” between values parts separate entries of the source, which are not always exact repeats. Equal entries are not always repeated.

Key:
CHIKV = assay type: cell-based, chikungunya virus
EEEV FL93-939 TaV-nLuc = experiment: microbe, parasite or virus in culture; assay type: cell-based; conditions: Eastern equine encephalitis virus, Vero, 24 h
VEEV TC-83 [1] = assay type: cell-based, Venezuelan equine encephalitis virus
SINV = assay type: cell-based, Sindbis virus
VEEV TC-83 [2] = experiment: microbe, parasite or virus in culture; assay type: cell-based; conditions: Venezuelan equine encephalitis virus, Vero, read-out: effective concentration 50% (EC50)
VEEV ZPC738 TaV-nLuc = experiment: microbe, parasite or virus in culture; assay type: cell-based; conditions: Venezuelan equine encephalitis virus, Vero, 24 h
in vitro = conditions: African green monkey

Q: For `CC(=O)c1c(O)c(C)c(O)c(Cc2c(O)c3c(c(C(=O)/C=C/c4ccccc4)c2O)OC(C)(C)C=C3)c1O` [Rottlerin], which “decrease in CHIKV replication” value (CHIKV) is on record?
A: Its value is 3 log.

Q: What about the EC50 (EEEV FL93-939 TaV-nLuc) of the same molecule?
A: Its EC50 is 1700 nM.

Q: And the “decrease in VEEV TC-83 replication” value (VEEV TC-83 [1])?
A: The value was 2 log and 3 log.

Q: And the “decrease in SINV replication” value (SINV)?
A: The value was 5 log.

Q: What about the EC50 (VEEV TC-83 [2]) of the same molecule?
A: The EC50 was < 1000 nM.

Q: And the EC50 (VEEV ZPC738 TaV-nLuc)?
A: Its EC50 is 1100 nM.

Q: And the CC50 (in vitro)?
A: Its CC50 is 63000 nM.
